Reference: US7531360B2, “Method of dechlorination treatment of flowing water, in particular upstream of a biological pollution detector” (Societe des Eaux de Marseille, priority 2005, dated 2009)
Entries after “also recorded” stand apart in the source; their conditions may differ.

Columns and labels:
trout fingerlings [1] = assay: Tests of known dechlorination agents for use with biological detector
Text: The inventors carried out a number of experiments to test the various known dechlorination agents mentioned above.

[2] = Maintenance of reducing power of stored ascorbic acid solution over time (iodometry, FIG. 1); details: for Reducing activity of degradation by-product: compared with initial ascorbic acid
trout fingerlings [3] = assay: Toxicity of chlorine for trout fingerlings: aquarium with increasing concentrations of sodium hypochlorite; format: in vivo; details: maintained 8 hours
Protocol: This toxicity of chlorine for trout fingerlings has also been shown by the inventors. Twelve trout fingerlings were maintained in an aquarium containing water chlorinated with increasing concentrations of sodium hypochlorite. Each chlorine concentration was maintained for a period of 8 hours. The aquarium was placed under permanent aeration using an air pump equipped with a porous diffuser. The following table presents the results observed during this experiment.
The following table presents the results observed during this experiment. ([Cl2]=chlorine disinfectant expressed in equivalent Cl2.)

trout fingerlings [4] = details: ascorbic acid 75 mg/l, 6 trout fingerlings, 15 days
Text: As for the TruitoSEM, the aquarium was maintained under constant aeration.

[5] = Flowing dechlorination test without trout fingerlings (metering pump, in-line mixer, FIG. 2)
[6] = Effect of excess ascorbic acid on pH, dissolved oxygen and residual chlorine in artificially chlorinated distributed water; details: stoichiometric or slight excess of reducing agent
Text: In order to ensure effective dechlorination, it is advantageous to control the system using a chlorine analyzer (a metering pump controlled by a chlorine analyzer). However, to avoid this metering pump control, it is possible to work with a slight excess of ascorbic acid. […] Experiments were thus carried out in this area on artificially chlorinated distributed water to verify these effects.
It should be noted that the pH still remains in a range favorable to the survival of trout fingerlings regardless of the initial pH of the distributed water.

trout fingerlings [7] = assay: Flowing dechlorination tests in the presence of trout fingerlings; format: in vivo; details: continuous period of several days
Protocol: The dechlorinated water flowing out of the mixer directly feeds the aquarium, which is equipped with two probes to measure dissolved oxygen, pH and temperature in real time. The aquarium is maintained under permanent aeration so that stress is not induced in the fish due to a lack of dissolved oxygen.
These flowing dechlorination tests were then carried out in the presence of trout fingerlings, for a continuous period of several days.

Fario trout fingerlings = assay: Validation of treatment installation coupled with TruitoSEM biological detector

In the case of `O=S([O-])O.[Na+]` [sodium bisulfite, sodium bisulfite (NaHSO3)], the “Outcome for trout fingerlings” value (trout fingerlings [1]; various implementation conditions) is reported as “death of the trout fingerlings”.
In the case of `CCC(=O)C=O` [ethylglyoxal], the “Reducing activity of degradation by-product” value [2] is reported as “lessened reducing activity”.
For `O=C1O[C@H]([C@@H](O)CO)C(=O)C1=O` [dehydroascorbic acid], the “Reducing activity of degradation by-product” value [2] was “equivalent to that of the initial ascorbic acid”.
With `O=C1O[C@H]([C@@H](O)CO)C([O-])=C1O.[Na+]` [Sodium ascorbate, sodium ascorbate] the Stability of reagent (trout fingerlings [1]) was “lack of stability”.
For `OCl` [sodium hypochlorite], the Effects observed (trout fingerlings [3]; [Cl2] 0.25 mg/l) was “No effect”, the Mortality % observed (trout fingerlings [3]; [Cl2] 0.25 mg/l, 12 trout fingerlings) was 0% and the Effects observed (trout fingerlings [3]; [Cl2] 0.70 mg/l) was “Reduction in mobility; also recorded: Accelerated ventilation”. For the same compound, the Mortality % observed (trout fingerlings [3]; [Cl2] 0.70 mg/l) was 10%, the Effects observed (trout fingerlings [3]; [Cl2] 1.4 mg/l) was “Highly reduced mobility; also recorded: Loss of appetite; also recorded: Very high ventilation; also recorded: Reduction in the size of the iris” and the Mortality % observed (trout fingerlings [3]; [Cl2] 1.4 mg/l) was 60%. For the same compound, the Effects observed (trout fingerlings [3]; [Cl2] 2.1 mg/l) was “Swimming on the side then on the back; also recorded: Death” and the Mortality % observed (trout fingerlings [3]; [Cl2] 2.1 mg/l) was 100%.
For `O=C1O[C@H]([C@@H](O)CO)C(O)=C1O` [ascorbic acid, L-ascorbic acid], the “Behavior of trout fingerlings” value (trout fingerlings [4]) was “did not show any significant change in the behavior”, the “Ascorbic acid flow rate for effective dechlorination” value ([5]; 20% solution stored 60 days away from light at ambient temperature (R=3)) was 0.036 L/h and the “Ascorbic acid flow rate for effective dechlorination” value ([5]; 20% solution, t=0, optimal setting (R=2.5)) was 0.030 L/h. For the same compound, the “Decrease of speed of reaction with chlorine” value ([5]; ascorbic acid 60 days old) was 16%, the Dechlorination yield ([5]; initial chlorine 4.5 mg/l equivalent Cl2, 20% ascorbic acid flow rate 0.030 l/h (R=2.5)) was ~100% and the “Residual chlorine concentration after treatment” value [6] was < 0.1 mg/L. For the same compound, the “Physical signs and mobility of trout fingerlings” value (trout fingerlings [7]) was “no abnormal physical signs and normal mobility”, the “Mortality of biological indicators” value (Fario trout fingerlings; 8 hours/day for twenty days, real operating conditions) was “did not generate any mortality” and the “Elimination of chlorine in installation” value (Fario trout fingerlings; in-flow 4.5 mg/l Cl2, water 160 l/h, 20% ascorbic acid 0.036 l/h, solution stored 0 to 60 days) was “complete neutralization”. The “Reduction in reducing power over time” value ([2]; 10% ascorbic acid solution, darkness, approx. 20° C., after 35 days) was −10%, the “Loss of reducing activity” value ([2]; ascorbic acid after 60 days, FIG. 1) was 5% and the “Effectiveness of the product (chlorine elimination) after storage” value ([2]; at least 20% (200 g/l) solution, after 60 days of use) was “approximately 95%”.
